Laboratory results taken from patent US20260083704A1, “LXR MODULATORS WITH BICYCLIC CORE MOIETY FOR TREATING DYSLIPIDEMIAS” (OrsoBio, Inc., priority 2022, published 2026).

Experiments:
[1] = biological target: T1, GST-LXRβ ligand-binding domain (Homo sapiens, UniProt P55055); test: TR-FRETβ activity assay (NCoA3 coactivator peptide recruitment); type: biochemical; conditions: 1 μM 24(S)-25-epoxycholesterol prestimulation
T1 construct: amino acids 156-461; NP009052; made in house; host or cells: E. coli
T1 sequence (P55055 156-460 limits assumed): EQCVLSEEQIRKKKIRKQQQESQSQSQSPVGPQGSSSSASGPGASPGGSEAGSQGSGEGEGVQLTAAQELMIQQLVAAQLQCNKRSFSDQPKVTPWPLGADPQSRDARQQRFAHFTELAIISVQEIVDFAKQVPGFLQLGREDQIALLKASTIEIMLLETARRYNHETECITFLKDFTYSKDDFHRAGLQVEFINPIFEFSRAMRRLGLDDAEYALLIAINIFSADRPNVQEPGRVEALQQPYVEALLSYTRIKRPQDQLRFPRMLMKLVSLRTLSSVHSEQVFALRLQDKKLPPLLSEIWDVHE
Summary of the method: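 E. coli-expressed GST-LXRβ LBD (aa 156-461, 76 nM) with biotinylated NCoA3 peptide (400 nM) in Tris/HCl pH 6.8 containing 1 μM 24(S)-25-epoxycholesterol agonist. Compounds tested at 50 μM down to 0.002 μM in triplicate. TR-FRET (Tb cryptate/XL665, ex 340, em 615/665 nm) read after 1 h at 4° C.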

[2] = Short term HFD mouse model: plasma and liver exposure; type: in vivo; conditions: HFD mice, 4 h after final dose
Procedure: (§1) The in vivo transcriptional regulation of several LXR target genes by LXR modulators was assessed in mice.
(§2) For this, C57BL/6J were purchased from Elevage Janvier (Rennes, France) at the age of 8 weeks. After an acclimation period of two weeks, animals were prefed on a high fat diet (HFD) (Ssniff Spezialdiäten GmbH, Germany, Surwit EF D12330 mod, Cat. No. E15771-34), with 60 kcal % from fat plus 1% (w/w) extra cholesterol (Sigma-Aldrich, St. Louis, MO) for 5 days. Animals were maintained on this diet during treatment with LXR modulators. The test compounds were formulated in 0.5% hydroxypropylmethylcellulose (HPMC) and administered in three doses (from 1.5 to 20 mg/kg each) by oral gavage according to the following schedule: on day one, animals received treatment in the morning and the evening (ca. 17:00), on day two animals received the final treatment in the morning after a 4 h fast and were sacrificed 4 h thereafter. Animal work was conducted according to the national guidelines for animal care in Germany.
Upon termination, liver was collected, dipped in ice cold PBS for 30 seconds and cut into appropriate pieces. Pieces were snap frozen in liquid nitrogen and stored at −80° C. For the clinical chemistry analysis from plasma, alanine aminotransferase (ALT, IU/mL), cholesterol (CHOL, mg/dL) and triglycerides (TG, mg/dL) were determined using a fully-automated bench top analyzer (Respons®910, DiaSys Greiner GmbH, Flacht, Germany) with system kits provided by the manufacturer.

[3] = tested on: LXR target genes (Scd1, Fas, Srebp1) in liver; test: Short term HFD mouse model: gene expression in liver tissue; type: in vivo; conditions: HFD mice, expression normalized to Tbp; for response vs control in vivo at 10 mg/kg / response vs control in vivo at 20 mg/kg: Mus musculus, 4 h, read-out: Scd1 suppresion compared to vehicle
Procedure: as §1, §2
Analysis of gene expression in liver tissue. To obtain total RNA from frozen liver tissue, samples (25 mg liver tissue) were first homogenized with RLA buffer (4M guanidin thiocyanate, 10 mM Tris, 0.97% w:v β-mercapto-ethanol). RNA was prepared using a SV 96 total RNA Isolation system (Promega, Madison, Wisconsin, USA) following the manufacturer's instructions. cDNAs were synthesized from 0.8-1 μg of total RNA using All-in-One cDNA Supermix reverse transcriptase (Absource Diagnostics, Munich, Germany). Quantitative PCR was performed and analyzed using Prime time Gene expression master mix (Integrated DNA Technologies, Coralville, Iowa, USA) and a 384-format ABI 7900HT Sequence Detection System (Applied Biosystems, Foster City, USA). The expression of the following genes was analysed: Stearoyl-CoA desaturase1 (Scd1), fatty acid synthase (Fas) and sterol regulatory element-binding protein1 (Srebp1). Specific primer and probe sequences (commercially available) are listed in Table 3. qPCR was conducted at 95° C. for 3 min, followed by 40 cycles of 95° C. for 15 s and 60° C. for 30 s. All samples were run in duplicates from the same RT-reaction. Gene expression was expressed in arbitrary units and normalized relative to the mRNA of the housekeeping gene TATA box binding protein (Tbp) using the comparative Ct method.

[4] = three oral doses of 10 mg/kg over two days
[5] = three oral doses of 20 mg/kg over two days

Structure (SMILES) | EC50 [1] | liver exposure 4 h [2, 4] | liver/plasma ratio 4 h [2, 4] | plasma exposure 4 h [2, 4] | Fasn suppression compared to vehicle ([3]; three oral doses of 10 mg/kg) | response vs control in vivo at 10 mg/kg ([3]; three oral doses of 10 mg/kg) | Srebp1c suppr. compared to vehicle ([3]; three oral doses of 10 mg/kg) | liver exposure 4 h [2, 5] | liver/plasma ratio 4 h [2, 5] | plasma exposure 4 h [2, 5] | Fasn suppression compared to vehicle ([3]; three oral doses of 20 mg/kg) | response vs control in vivo at 20 mg/kg ([3]; three oral doses of 20 mg/kg) | Srebp1c suppr. compared to vehicle ([3]; three oral doses of 20 mg/kg)
N#Cc1cccc(C#N)c1-c1c(-c2cccc(-c3c(F)cc(CC(=O)O)cc3F)c2)n(S(=O)(=O)c2ccc(C(F)F)cc2)c2ccc(F)cc12 [3/73] | < 100 nM | B (300 nM to ≤1 μM) | C (30 to ≤100) | D (<100 nM) | A (>0.9) | < 30% |  |  |  |  |  |  | 
N#Cc1cccc(C#N)c1-c1c(-c2cccc(-c3cc(F)c(C(=O)O)cc3Cl)c2)n(S(=O)(=O)c2ccc(C(F)F)cc2)c2ccc(F)cc12 [11/65] | < 100 nM | C (1 μM to ≤10 μM) | C (30 to ≤100) | D (<100 nM) |  | < 30% | D (<0.3) |  |  |  |  |  | 
CS(=O)(=O)NC(=O)c1ccc(-c2cccc(-c3c(-c4c(C#N)cccc4C#N)c4cc(F)ccc4n3S(=O)(=O)c3ccc(C(F)F)cc3)c2)c(Cl)c1 [32/5] | < 100 nM | B (300 nM to ≤1 μM) | B (5 to ≤30) | D (<100 nM) |  | 30 to 60% | C (0.3 to ≤0.6) |  |  |  |  |  | 
CC(=O)NS(=O)(=O)c1ccc(-c2cccc(-c3c(-c4c(C#N)cccc4C#N)c4cc(F)ccc4n3S(=O)(=O)c3ccc(C(F)F)cc3)c2)c(Cl)c1 [8/8] | < 100 nM | B (300 nM to ≤1 μM) | B (5 to ≤30) | C (100 nM to <300 nM) |  | < 30% | D (<0.3) |  |  |  |  |  | 
O=C(O)c1ccc(-c2cccc(-c3c(-c4c(Cl)cccc4Cl)c4cc(F)ccc4n3S(=O)(=O)c3ccc(C(F)F)cc3)c2)c(Cl)c1 [11/13] | < 100 nM |  |  |  |  |  |  | C (1 μM to ≤10 μM) | A (<5) | A (>1 μM) | C (0.3 to ≤0.6) | < 30% | 
N#Cc1cccc(C#N)c1-c1c(-c2cccc(-c3ccc(C(=O)NCCS(=O)(=O)O)cc3Cl)c2)n(S(=O)(=O)c2ccc(C(F)F)cc2)c2ccc(F)cc12 [10/1] | < 100 nM | B (300 nM to ≤1 μM) | C (30 to ≤100) | D (<100 nM) |  | < 30% | D (<0.3) |  |  |  |  |  | 
N#Cc1ccccc1-c1c(-c2cccc(-c3ccc(C(=O)O)cc3Cl)c2)n(S(=O)(=O)c2ccc(C(F)F)cc2)c2ccc(F)cc12 [11/33] | < 100 nM |  |  |  |  |  |  | C (1 μM to ≤10 μM) | C (30 to ≤100) | C (100 nM to <300 nM) | B (0.6 to ≤0.9) | < 30% | 
Cc1ccc(S(=O)(=O)n2c(-c3cccc(C45CCC(C(=O)O)(CC4)CC5)c3)c(-c3ccsc3C#N)c3cc(F)ccc32)cc1 [3/64] | 100 to 1000 nM |  |  |  |  |  |  | D (>10 μM) | D (>100) | C (100 nM to <300 nM) | B (0.6 to ≤0.9) | < 30% | B (0.6 to ≤0.9)
N#Cc1sccc1-c1c(-c2cccc(-c3ccc(C(=O)O)cc3Cl)c2)n(S(=O)(=O)c2ccc(C(F)(F)F)nc2)c2ccc(F)cc12 [11/16] | 100 to 1000 nM |  |  |  |  |  |  | C (1 μM to ≤10 μM) | B (5 to ≤30) | C (100 nM to <300 nM) | A (>0.9) | 30 to 60% | B (0.6 to ≤0.9)
Cc1ccc(S(=O)(=O)n2c(-c3cccc(-c4ccc(C(=O)O)cc4)c3)c(-c3ccsc3C#N)c3cc(F)ccc32)cc1C [23/2] | 100 to 1000 nM |  |  |  |  |  |  | A (<300 nM) | A (<5) | C (100 nM to <300 nM) | C (0.3 to ≤0.6) | < 30% | 
N#Cc1cccc(C#N)c1-c1c(-c2cccc(-c3c(F)cc(C(=O)O)cc3F)c2)n(S(=O)(=O)c2ccc(C(F)F)cc2)c2ccc(F)cc12 [11/53] | < 100 nM | C (1 μM to ≤10 μM) | C (30 to ≤100) | D (<100 nM) |  | < 30% | D (<0.3) |  |  |  |  |  | 
N#Cc1ccccc1-c1c(-c2cccc(-c3ccc(C(=O)O)cc3Cl)c2)n(S(=O)(=O)c2ccc(C(F)F)cc2)c2cnccc12 [11/49] | < 100 nM |  |  |  |  |  |  | C (1 μM to ≤10 μM) | D (>100) | D (<100 nM) | C (0.3 to ≤0.6) | < 30% | C (0.3 to ≤0.6)
N#Cc1cccc(C#N)c1-c1c(-c2cccc(-c3ccc(C(=O)O)cc3Cl)c2)n(S(=O)(=O)c2ccc(C(F)(F)F)nc2)c2ccc(F)cc12 [11/37] | < 100 nM | C (1 μM to ≤10 μM) | C (30 to ≤100) | D (<100 nM) |  | < 30% | D (<0.3) |  |  |  |  |  | 
N#Cc1cccc(C#N)c1-c1c(-c2cccc([C@H]3CC[C@H](C(=O)O)CC3)c2)n(S(=O)(=O)c2ccc(C(F)F)cc2)c2ccc(F)cc12 [11/62] | 100 to 1000 nM | C (1 μM to ≤10 μM) | B (5 to ≤30) | C (100 nM to <300 nM) |  | < 30% | D (<0.3) |  |  |  |  |  | 
Cc1ccc(S(=O)(=O)n2c(-c3cccc(-c4ccc(C(=O)O)cc4)c3)c(-c3ccsc3C#N)c3cc(F)ccc32)cc1 [5/3] | 100 to 1000 nM |  |  |  |  |  |  | C (1 μM to ≤10 μM) | B (5 to ≤30) | D (<100 nM) | D (<0.3) | 30 to 60% | 
N#Cc1cccc(C#N)c1-c1c(-c2cccc(-c3ccc(C(=O)O)cc3Cl)c2)n(S(=O)(=O)C2CCC(F)(F)CC2)c2ccc(F)cc12 [11/63] | 100 to 1000 nM | C (1 μM to ≤10 μM) | B (5 to ≤30) | D (<100 nM) |  | 30 to 60% | D (<0.3) |  |  |  |  |  | 
N#Cc1nccnc1-c1c(-c2cccc(-c3cc(F)c(C(=O)O)cc3Cl)c2)n(S(=O)(=O)c2ccc(C(F)F)cc2)c2ccc(F)cc12 [11/11] | < 100 nM |  |  |  |  |  |  | D (>10 μM) | D (>100) | D (<100 nM) | C (0.3 to ≤0.6) | < 30% | 
